From patent publication US20180311237A1, “COMPOSITIONS AND METHODS FOR PREVENTING AND TREATING MUCOSITIS AND WEIGHT LOSS” (ST IP Holding AG, priority 2007, published 2018)
Where “and” joins values, the source holds several entries; their conditions need not be identical. Equal entries are not always repeated. Where two headings read alike, the source gives them in different places. Marks after values point to notes of the source that are not given here.

Experiments:
bone marrow cells [1] = tested on: bone marrow cells
[2] = tested on: reduced glutathione (GSH)
Protocol: (§1) Thirty minutes after the last administration, the animals were exposed to 8 Gy gamma radiation. Survival of the animals was recorded for 30 days after irradiation. The reduced glutathione (GSH) and lipid peroxidation (LPO) levels in liver and blood were estimated after 30 minutes of radiation exposure.
The hepatic level of reduced glutathione (GSH) was determined as per the standard method. GSH content in blood was measured
Spectrophotometrically using Ellman's reagent (DTNB) as a colouring reagent. The absorbance was read at 412 nm using a UV-VIS Systronics Spectrophotometer.

spleen = conditions: day 10 post-irradiation
Protocol: The weight of the spleen at each autopsy interval (day 1, 3, 7, 10, 14 and 30 post-irradiation) was determined to study changes.

bone marrow cells [3] = tested on: bone marrow cells; remark: listed apart in the source
Protocol: Cytogenetic damage in the bone marrow cells was studied by chromosomal aberration analysis at the end of the experiments. All animals were injected intra-peritoneally (i.p.) with 0.025% colchicine and sacrificed 2 hours later by cervical dislocation. Both femurs were dissected out. Metaphase plates were prepared by the air drying method. Bone marrow from the femur was aspirated, washed in saline, treated hypotonically (0.6% sodium citrate), fixed in 3:1 methanol:acetic acid, dried and stained with 4% Giemsa (Sigma, USA). Chromosomal aberrations were scored under a light microscope. A total of 400 metaphase plates were scored per animal. Different types of aberration-like chromatid breaks, chromosome breaks, fragments, rings, exchanges and dicentrics were scored. When breaks involved both chromatids, it was termed a “chromosome type” aberration, while “chromatid type” aberrations involved only one chromatid. If the deleted portion had no apparent relation to a specific chromosome, it was called a fragment.

[4] = tested on: endogenous spleen colony forming units (CFU-S); conditions: day 10 post-irradiation
Protocol: The endogenous spleen colony assay was done according to the method of Till and McCulloch. Endogenous spleen colony forming units (CFU-S) were determined on day 10 after irradiation. Animals were sacrificed by cervical dislocation. Their spleens were removed, weighed and fixed in Bouin's fixative. Grossly visible nodules on the surface of the spleen were counted with the naked eye.

[5] = tested on: mice exposed to 6, 8 and 10 Gy gamma radiation
From the text: (§2) Male Swiss albino mice (Mus musculus), 6-8 weeks old with 25±3 g body weight from an inbred colony (obtained from Hamadard University, Delhi, India) were used for the present study. Animals were maintained under controlled conditions of temperature and light in an animal house and were provided with standard mice feed (procured from Hindustan Lever's Ltd. Delhi, India) and water ad libitum.
Cobalt teletherapy unit (ATC-C9) at the Cancer treatment centre, Radiotherapy Department, SMS Medical College & Hospital, Jaipur, India, was used for irradiation.
as §1
The protective capacity of an agent (chemical or plant extract) is expressed as dose reduction factor (DRF). It can be calculated by dividing the LD50/30 of experimental animals by LD^50/30 of control animals.
Mice of both groups (control as well as experimental) exposed to 6, 8 and 10 Gy gamma radiation were checked daily for 30 days and the percentage of mice surviving 30 days of exposure against each radiation dose was used to construct survival-dose response curves.
The results obtained are expressed as mean±SE. Student's “t” test was used to make a statistical comparison between the groups. Significance levels were set at P<0.05, P<0.01 and P<0.001. Regression analysis was done to obtain LD50/30 values and to determine the dose reduction factor (DRF).

[6] = tested on: lipid peroxidation (TBARS)
Protocol: as §1
The absorbance was read at 532 nm.

[7] = 50, 100, 200 or 400 kg/body weight/day orally for 2 consecutive days, observed 30 days
From the text: as §2

Cc1c(-c2cnccn2)ssc1=S
Number of Mn/1000 Cells (bone marrow cells [1]; drug + 8.0 Gy gamma rays): 6.58 ± 0.64^c
Number of Mn/1000 Cells (bone marrow cells [1]; drug alone): 0.28 ± 0.01
dose up to which no signs of toxicity and no mortality were observed (fasted 18 hours, observed 14 days post-drug treatment): up to 2 g/kg
amount administrable without significant toxicity (formulated with carboxymethyl cellulose (CMC)): up to 2000 mg/kg
Blood GSH ([2]; drug + 6 Gy): 3.02 ± 0.12^c μg/ml
Liver GSH ([2]; drug + 6 Gy): 52.44 ± 1.54^b μmole/gm
Blood GSH ([2]; drug + 8 Gy): 2.88 ± 0.11^b μg/ml
Liver GSH ([2]; drug + 8 Gy): 54.62 ± 1.72^c μmole/gm
Blood GSH ([2]; drug + 10 Gy): 2.40 ± 0.12 µg/mL
Liver GSH ([2]; drug + 10 Gy): 44.38 ± 1.42^c μmole/gm
Blood GSH ([2]; drug alone, no irradiation): 4.18 ± 0.18 µg/mL
Liver GSH ([2]; drug alone, no irradiation): 65.68 ± 1.48 μmole/gm
Spleen Weight (spleen; drug + 6 Gy): 42.44 ± 1.24^b mg
Spleen Weight (spleen; drug + 8 Gy): 32.62 ± 1.02^b mg
Spleen Weight (spleen; drug + 10 Gy): 34.38 ± 1.20^c mg
Chromatid breaks (bone marrow cells [3]; drug (100 mg/kg body weight/day) + 8 Gy): 3.18 ± 0.44^a %
Aberrant cells (bone marrow cells [3]; drug + 8 Gy): 17.20 ± 1.20^c %
Aberrations per damaged cell (bone marrow cells [3]; drug + 8 Gy): 2.21 ± 0.20^a
Centric rings (bone marrow cells [3]; drug + 8 Gy): 1.26 ± 0.28%
Chromosome breaks (bone marrow cells [3]; drug + 8 Gy): 1.04 ± 0.26^b %
Dicentrics (bone marrow cells [3]; drug + 8 Gy): 1.10 ± 0.14%
Exchanges (bone marrow cells [3]; drug + 8 Gy): 1.18 ± 0.32^b %
Fragments (bone marrow cells [3]; drug + 8 Gy): 28.8 ± 3.20^c %
Polyploidy (bone marrow cells [3]; drug + 8 Gy): 0.36 ± 0.01^c %
Pulverized cells (bone marrow cells [3]; drug + 8 Gy): 1.28 ± 0.02^c %
Total aberrations (bone marrow cells [3]; drug + 8 Gy): 38.10 ± 3.66^c %
Aberrant cells (bone marrow cells [3]; drug alone): 0.61 ± 0.04%
Aberrations per damaged cell (bone marrow cells [3]; drug alone): 1.21 ± 0.03^c
Centric rings (bone marrow cells [3]; drug alone): 0.00 ± 0.00%
Chromatid breaks (bone marrow cells [3]; drug alone): 0.14 ± 0.01%
Chromosome breaks (bone marrow cells [3]; drug alone): 0.00 ± 0.00%
Dicentrics (bone marrow cells [3]; drug alone): 0.00 ± 0.00%
Exchanges (bone marrow cells [3]; drug alone): 0.00 ± 0.00%
Fragments (bone marrow cells [3]; drug alone): 0.85 ± 0.04^b %
Polyploidy (bone marrow cells [3]; drug alone): 0.18 ± 0.02%
Pulverized cells (bone marrow cells [3]; drug alone): 0.00 ± 0.00%
Total aberrations (bone marrow cells [3]; drug alone): 0.74 ± 0.02%
Number of macroscopic colonies ([4]; drug + 6 Gy): 10.22 ± 0.62
Number of macroscopic colonies ([4]; drug + 8 Gy): 13.80 ± 0.84^c
Number of macroscopic colonies ([4]; drug + 10 Gy): 15.22 ± 0.77^c
radiation sickness ([5]; 100 mg/kg body weight/day before 6 Gy): No radiation sickness was observed
30-Day Survival Percentage ([5]; 100 mg/kg body weight/day orally, 2 days, before 6 Gy): 100%
30-Day Survival Percentage ([5]; 100 mg/kg body weight/day orally, 2 days, before 8 Gy): 61%
30-Day Survival Percentage ([5]; 100 mg/kg body weight/day orally, 2 days, before 10 Gy): 20%
LD50/30 of experimental animals ([5]; 100 mg/kg body weight/day orally, 2 days, before radiation, regression analysis of survival data): 8.82 Gy and 8.51 Gy
DRF (dose reduction factor) ([5]; LD50/30 of experimental animals divided by LD50/30 of control animals): 1.34
optimum dose exhibiting maximum radioprotection ([5]; for 2 consecutive days before irradiation (8 Gy)): 100 mg/kg body weight/day
Blood LPO ([6]; drug + 6 Gy): 2.44 ± 0.16^c nmol/ml
Liver LPO ([6]; drug + 6 Gy): 3.22 ± 0.12^c nmol/mg
Blood LPO ([6]; drug + 8 Gy): 3.28 ± 0.16^a nmol/ml
Liver LPO ([6]; drug + 8 Gy): 3.80 ± 0.14^c nmol/mg
Blood LPO ([6]; drug + 10 Gy): 3.68 ± 0.18^b nmol/ml
Liver LPO ([6]; drug + 10 Gy): 5.22 ± 0.27^c nmol/mg
Blood LPO ([6]; drug alone, no irradiation): 1.10 ± 0.10 nmol/mL
Liver LPO ([6]; drug alone, no irradiation): 2.42 ± 0.14 nmol/mg
toxic effect (mortality or any other sign) [7]: did not produce any toxic effect
